According to PMC8645336, “Benchmarking a highly selective USP30 inhibitor for enhancement of mitophagy and pexophagy” (Life Science Alliance, 2021):

Experiments:
USP35** = target: T1, USP35** (Homo sapiens, UniProt Q9P2H5); experiment: biochemical; set-up: Ubiquigent DUB profiler selectivity panel, remaining enzyme activity as % of control; details: read-out: % of control remaining
T1 sequence (Q9P2H5 1-1018): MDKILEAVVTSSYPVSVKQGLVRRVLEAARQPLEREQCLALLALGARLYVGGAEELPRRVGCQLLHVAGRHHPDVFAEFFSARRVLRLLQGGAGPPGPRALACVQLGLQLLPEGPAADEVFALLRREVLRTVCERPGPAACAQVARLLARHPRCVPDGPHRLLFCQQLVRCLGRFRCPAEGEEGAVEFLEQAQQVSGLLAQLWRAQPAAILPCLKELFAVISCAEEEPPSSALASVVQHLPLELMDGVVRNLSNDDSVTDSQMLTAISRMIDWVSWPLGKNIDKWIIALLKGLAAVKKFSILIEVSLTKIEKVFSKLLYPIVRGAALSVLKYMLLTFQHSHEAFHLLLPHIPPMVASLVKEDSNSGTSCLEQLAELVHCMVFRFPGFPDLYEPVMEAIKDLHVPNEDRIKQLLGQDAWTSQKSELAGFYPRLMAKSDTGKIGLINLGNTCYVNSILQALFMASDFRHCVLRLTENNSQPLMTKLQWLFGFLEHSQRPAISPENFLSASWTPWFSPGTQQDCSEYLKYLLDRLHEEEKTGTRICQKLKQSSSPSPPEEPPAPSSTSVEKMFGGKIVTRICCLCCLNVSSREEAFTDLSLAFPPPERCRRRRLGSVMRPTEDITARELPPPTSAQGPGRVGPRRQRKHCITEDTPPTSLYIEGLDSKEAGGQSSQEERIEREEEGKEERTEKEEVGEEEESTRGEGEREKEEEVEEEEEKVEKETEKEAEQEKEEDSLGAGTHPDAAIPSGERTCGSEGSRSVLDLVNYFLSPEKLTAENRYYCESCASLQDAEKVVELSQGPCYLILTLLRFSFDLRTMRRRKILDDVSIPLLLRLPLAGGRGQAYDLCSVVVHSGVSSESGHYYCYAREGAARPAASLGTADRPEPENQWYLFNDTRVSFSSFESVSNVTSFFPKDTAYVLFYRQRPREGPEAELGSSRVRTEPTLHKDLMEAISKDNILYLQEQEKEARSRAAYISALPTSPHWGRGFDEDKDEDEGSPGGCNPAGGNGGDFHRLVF
Protocol: (§1) Previous work has reported IC50 values for a series of benzosulphonamide inhibitors, of which all those <1 μM were screened for selectivity, in comparison to three other USP family members ([20], [21]). We have selected one of these compounds (CMPD-39, Fig 1A) for a more rigorous test of selectivity provided by the Ubiquigent DUB profiler screening platform comprising >40 DUBs. […] To test engagement of the inhibitor with USP30 applied to intact cells, we assayed competition with Ub-PA (Ub-propargylamide). Ub-PA covalently binds to the USP30 active site leading to a characteristic upshift on a SDS–PAGE gel ([22]). If a drug blocks access to the catalytic site, then the probe modification is blocked and the apparent molecular weight of USP30 shifts down accordingly. […] A robust proxy read-out for target engagement is the enhancement of TOMM20 ubiquitylation after mitochondrial depolarization ([6], [16]). This second assay indicates a maximal effect with 200 nM CMPD-39 applied to RPE1-YFP-PRKN cells (Fig 1D).  Figure 1. CMPD-39 is a selective USP30 inhibitor. (A) Chemical structure of CMPD-39. (B) DUB specificity screen (DUB profiler, Ubiquigent) with 1-100 μM CMPD-39. […] Samples were incubated with CMPD-39 for 2 h at the indicated concentrations, then incubated with HA-Ub-PA probe for 10 min at 37°C and immunoblotted as shown. Red arrow indicates unbound USP30; blue arrow represents probe bound USP30. (D) Inhibition of USP30 enhances the ubiquitylation of TOMM20 in YFP-PRKN over-expressing hTERT-RPE1 cells in a concentration dependent manner in response to mitophagy induction. Cells were treated for 1 h with DMSO or antimycin A and oligomycin A (AO; 1 μM each) in the absence or presence of CMPD-39 at the indicated concentrations, lysed, and analyzed by Western blotting. Black arrow indicates unmodified TOMM20, ubiquitylated species are indicated by red (mono-ubiquitylated) or blue arrow heads. […] Source data are available for this figure.

USP36 = target: T2, USP36 (Homo sapiens, UniProt Q9P275); experiment: biochemical; set-up: Ubiquigent DUB profiler selectivity panel, remaining enzyme activity as % of control; details: read-out: % of control remaining
T2 sequence (Q9P275 1-1123): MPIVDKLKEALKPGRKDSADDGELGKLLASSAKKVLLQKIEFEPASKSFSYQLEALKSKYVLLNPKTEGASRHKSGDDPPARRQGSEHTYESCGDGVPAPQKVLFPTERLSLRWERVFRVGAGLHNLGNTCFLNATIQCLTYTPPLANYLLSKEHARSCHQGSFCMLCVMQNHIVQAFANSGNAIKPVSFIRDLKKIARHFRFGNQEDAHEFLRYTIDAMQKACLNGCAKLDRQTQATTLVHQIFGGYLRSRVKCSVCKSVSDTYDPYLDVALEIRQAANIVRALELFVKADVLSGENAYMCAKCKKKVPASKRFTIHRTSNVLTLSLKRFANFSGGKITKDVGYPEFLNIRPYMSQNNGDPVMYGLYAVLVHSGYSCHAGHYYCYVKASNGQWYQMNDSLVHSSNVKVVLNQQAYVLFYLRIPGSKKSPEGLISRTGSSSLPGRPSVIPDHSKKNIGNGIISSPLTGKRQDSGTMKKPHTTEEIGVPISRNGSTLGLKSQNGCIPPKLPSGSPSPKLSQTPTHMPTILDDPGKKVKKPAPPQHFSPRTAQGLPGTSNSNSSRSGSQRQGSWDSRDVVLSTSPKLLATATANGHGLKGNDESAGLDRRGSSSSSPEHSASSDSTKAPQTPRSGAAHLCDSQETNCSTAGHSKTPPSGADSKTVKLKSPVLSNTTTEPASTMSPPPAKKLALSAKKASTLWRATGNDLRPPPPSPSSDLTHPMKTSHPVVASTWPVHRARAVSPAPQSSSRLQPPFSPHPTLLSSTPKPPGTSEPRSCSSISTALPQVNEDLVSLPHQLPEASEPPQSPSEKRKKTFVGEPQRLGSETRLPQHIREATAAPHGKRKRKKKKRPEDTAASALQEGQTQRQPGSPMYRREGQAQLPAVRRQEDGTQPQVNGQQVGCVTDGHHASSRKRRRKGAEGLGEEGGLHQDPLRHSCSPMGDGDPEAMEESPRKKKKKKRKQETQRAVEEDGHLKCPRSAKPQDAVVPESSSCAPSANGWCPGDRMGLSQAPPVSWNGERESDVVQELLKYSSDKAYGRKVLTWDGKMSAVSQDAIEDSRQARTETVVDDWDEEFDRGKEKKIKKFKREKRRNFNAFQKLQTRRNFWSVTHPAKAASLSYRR
Protocol: as §1

- remaining activity at 1 µM (USP35**): 113%
- remaining activity at 10 µM (USP35**): 101%
- remaining activity at 100 µM (USP35**): 102%
- remaining activity at 1 µM (USP36): 110%
- remaining activity at 10 µM (USP36): 98.8%
- remaining activity at 100 µM (USP36): 94.8%
SMILES: CC(C)(C)NS(=O)(=O)c1ccc(NC(=O)[C@H](Cc2ccccc2)NC(=O)c2ccc(F)cc2)cc1 [compound 39, CMPD-39]
